Data set [1] deals with DNA. As to the kind of experiment: Binding affinity to dsDNA (unknown origin) assessed as DNA intercalation by measuring change in fluorescence intensity by fluorescence-based screening assay. It counts as nucleic-acid assay.
The next data set deals with SK-OV-3. As to the kind of experiment: Cytotoxicity against human SK-OV-3 cells. Format: functional, cell-based.
Data set [2] has as its target MALAT1 triple helix RNA. As to the kind of experiment: Binding affinity to MALAT1 triple helix RNA (unknown origin) by fluorescence-based screening assay. Format: nucleic-acid assay.
For data set [3], the system named is MALAT1 triple helix RNA. As to the kind of experiment: Binding affinity to MALAT1 triple helix RNA (unknown origin) assessed as RNA intercalation by measuring change in fluorescence intensity by fluorescence-based screening assay. It counts as nucleic-acid assay.
Data set [4] concerns the target DNA. As to the kind of experiment: Binding affinity to dsDNA (unknown origin) by fluorescence-based screening assay. Format: nucleic-acid assay.
The subject of a further data set is MCF7. The data set is described as follows: Cytotoxicity against human MCF7 cells assessed as cell viability incubated for 48 hrs. Format: functional, cell-based. The settings on record: MCF7, 48 h.
Another data set relates to L929. As to the kind of experiment: Cytotoxicity against mouse L929 cells. Format: toxicity, cell-based.
The test system of data set [5] is MALAT1 triple helix RNA. As to the kind of experiment: Binding affinity to MALAT1 triple helix RNA (unknown origin) assessed as […] by measuring conformational change at 2.5 to 5.0 uM at 25 to 65 degreeC by temperature dependent CD analysis. It counts as nucleic-acid assay. Particulars: dose 2.5-5 µM.
Another data set relates to HeLa. The data set is described as follows: Cytotoxicity against human HeLa cells. It counts as functional, cell-based.

The source made the active and inactive calls. No cut-off for these calls is given here.

As to `O=c1c2ccccc2n2c(=O)c3ccccc3nc2n1-c1ccc(C(F)(F)F)cc1`, the deltaFI in the data set on DNA [1] was determined as 0.084.
With `COc1cccc2c1C(=O)c1c(O)c3c(c(O)c1C2=O)C[C@@](O)(C(=O)CO)C[C@@H]3O[C@H]1C[C@H](N)[C@H](O)[C@H](C)O1` [DOXORUBICIN], the concentration for half-maximal inhibition (IC50) – broadly, the concentration needed to halve the response being measured – in the data set on SK-OV-3 is 534 nM.
Take `O=c1c2ccccc2n2c(=O)c3ccccc3nc2n1Cc1cccc(C(F)(F)F)c1`: the deltaFI stood at 0.76 in the data set with DNA [1] and 0.504 with MALAT1 triple helix RNA [3]. Also, the EC50 (in general, the concentration giving half of the maximal effect) at MALAT1 triple helix RNA [2] amounted to 800 nM; on DNA [4], 1000 nM.
In turn, `N=C(N)c1ccc(-c2ccc(-c3ccc(C(=N)N)cc3)o2)cc1` [FURAMIDINE] came in with a concentration giving a half-maximal response (EC50) on MALAT1 triple helix RNA [2] of 600 nM. The 50% inhibitory concentration (IC50) in the data set with MCF7 was 90000 nM.
For `COC(=O)c1ccc(Cn2c(=O)c3ccccc3n3c(=O)c4ccccc4nc23)cc1`, the deltaFI in the data set on DNA [1] came to 0.426.
For the compound `O=c1c2ccccc2n2c(=O)c3ccccc3nc2n1Cc1ccc(OC(F)(F)F)cc1`, the deltaFI with DNA [1] was found to be 0.29.
On the same count and under the same terms, to `O=c1c2ccccc2n2c(=O)c3ccccc3nc2n1Cc1ccc([N+](=O)[O-])cc1` belongs 0.079.
Same read-out and setting: to `N#Cc1ccc(Cn2c(=O)c3ccccc3n3c(=O)c4ccccc4nc23)cc1` belongs 0.172.
The same measure, in the same setting: the figure for `O=c1c2ccccc2n2c(=O)c3ccccc3nc2n1Cc1cccc2ccccc12` is 0.014.
Consider `O=c1c2ccccc2n2c(=O)c3ccccc3nc2n1CCCn1c(=O)c2ccccc2n2c(=O)c3ccccc3nc12`, for which the Activity result in the data set with L929 is recorded as “Non-toxic”. In addition, the results for the half-maximal inhibitory concentration (IC50) in the data set with SK-OV-3 and in the data set with HeLa were 8000 nM and 63200 nM, respectively. The outcome in the data set with MALAT1 triple helix RNA [5] was Active. The deltaFI with DNA [1] and in the data set on MALAT1 triple helix RNA [3] was 1 each time. Besides, the results for the half-maximal effective concentration (EC50) at MALAT1 triple helix RNA [2] and at DNA [4] were 1100 nM and 1400 nM, respectively.
